Where “and” joins values, the source holds several entries; their conditions need not be identical. Equal entries are not always repeated.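 48-hour exposure; five concentrations; linearly interpolated endpoints. GI50 is the concentration that inhibits growth by half. Definition used: TGI = concentration required for complete inhibition of growth.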
What was measured:
Experiment in all cases: inhibition of tumour cell growth, NCI panel, 48 h
[1] = test system: HOP-62 NSCLC
[2] = test system: LOX IMVI melanoma
[3] = test system: MCF7 breast
[4] = test system: SF-268 CNS
[5] = test system: SW-620 colon
[6] = test system: UO-31 renal
[7] = test system: HL-60(TB) leukemia
[8] = test system: SNB-19 CNS
[9] = test system: MALME-3M melanoma
[10] = test system: SR leukemia

With `O=C1NC(=O)N(S(=O)(=O)c2cc(C(=O)Nc3ccc(Cl)cc3)c(Cl)cc2S)S(=O)(=O)N1` the GI50 [1] was 18.3 µM, the TGI [1] was 37.4 µM and the GI50 [2] was 17 µM. The TGI [2] was 34.3 µM, the GI50 [3] was 23.6 µM and the TGI [3] was 91.8 µM. The GI50 [4] was 16.9 µM, the TGI [4] was 46.6 µM and the GI50 [5] was 20.4 µM. For the same molecule, the TGI [5] was 44.5 µM, the GI50 [6] was 19.6 µM and the TGI [6] was 46.5 µM.

`CC1(C)CC2=NO[Se]3=C2C(=NO3)C1` was tested, and the TGI [7] was 5.08 µM, the TGI [1] was 10.8 µM and the TGI [2] was 9.39 µM. For the same molecule, the TGI [3] was 14.2 µM, the TGI [4] was 56.3 µM and the TGI [8] was 15.3 µM. For the same molecule, the TGI [5] was 12.3 µM and the TGI [6] was 8.73 µM.

`CCCCC(C(=O)C(=O)Nc1ccccc1CC)C(=O)C(C)C` (stereo not drawn) showed a TGI [7] greater than 100 µM, a TGI [2] greater than 100 µM and a TGI [9] greater than 100 µM. It also gave a TGI [4] greater than 100 µM, a TGI [8] greater than 100 µM and a TGI [5] greater than 100 µM. For the same molecule, the TGI [6] was greater than 100 µM.

`O=[N+]([O-])c1ccc(/C=C(/c2ccc([N+](=O)[O-])o2)S(=O)(=O)c2ccccc2)cc1` showed a TGI [7] of 74.1 µM, a TGI [1] greater than 100 µM and a TGI [9] of 87.5 µM. It also gave a TGI [3] greater than 100 µM, a TGI [4] greater than 100 µM and a TGI [8] greater than 100 µM. It also gave a TGI [10] of 36.5 µM, a TGI [5] greater than 100 µM and a TGI [6] greater than 100 µM.

With `Oc1c(Br)cc(Cl)cc1C(c1cc(Cl)cc(Br)c1O)C(Cl)(Cl)Cl` the GI50 [7] was 3.02 µM, the TGI [7] was 7.6 µM and the GI50 [1] was 3.02 µM. It also gave a TGI [1] of 9.16 µM, a GI50 [2] of 2.97 µM and a TGI [2] of 11.4 µM. For the same molecule, the GI50 [9] was 2.73 µM, the TGI [9] was 7.78 µM and the GI50 [3] was 2.83 µM. For the same molecule, the TGI [3] was 10.9 µM, the GI50 [4] was 3.61 µM and the TGI [4] was 15.2 µM. The GI50 [8] was 3.13 µM, the TGI [8] was 15.9 µM and the GI50 [5] was 3.28 µM. It also gave a TGI [5] of 13 µM, a GI50 [6] of 2.81 µM and a TGI [6] of 9.61 µM.

For `O=C(O)c1cn(C2CC2)c2cc(N3CCN(C(=O)N(c4ccccc4)c4nc(-c5ccccc5)cs4)CC3)c(F)cc2c1=O`, the GI50 [1] was 0.462 µM, the TGI [1] was greater than 45.4 µM and the GI50 [3] was 0.358 µM. It also gave a TGI [3] greater than 100 µM, a GI50 [4] of 0.389 µM and a TGI [4] greater than 100 µM. The GI50 [8] was 0.416 µM and the TGI [8] was greater than 100 µM.

Molecule `COc1ccc(C(C)Nc2cc(OC)c(OC)c(OC)c2)cc1` (stereo not drawn) has a TGI [7] of 5.81 µM, a TGI [1] greater than 83.2 µM and a TGI [2] greater than 92.6 µM. The TGI [9] was greater than 29.7 µM, the TGI [4] was 9.59 µM and the TGI [8] was greater than 100 µM. For the same molecule, the TGI [10] was greater than 100 µM, the TGI [5] was greater than 100 µM and the TGI [6] was greater than 100 µM.

Work on `c1cc(OCCCCCOc2cccc(-c3nc4ccccc4[nH]3)c2)cc(-c2nc3ccccc3[nH]2)c1` yielded a GI50 [1] of 3.58 µM, a TGI [1] greater than 100 µM and a GI50 [2] of 2.19 µM. The TGI [2] was 6.84 µM, the GI50 [9] was 1.87 µM and the TGI [9] was 5.02 µM. It also gave a GI50 [4] of 5.12 µM, a TGI [4] greater than 100 µM and a GI50 [8] of 2.85 µM. It also gave a TGI [8] greater than 100 µM, a GI50 [5] of 2.87 µM and a TGI [5] greater than 100 µM.

In the case of `COc1cc2c(cc1OCCN1CCN(CCN3C(=O)c4cccc5cccc(c45)C3=O)CC1)N=C[C@@H]1CCCN1C2=O`, the GI50 [1] is reported as 19.7 µM, the TGI [1] is reported as 34.9 µM and the GI50 [2] is reported as 32.7 µM. For the same molecule, the TGI [2] was greater than 100 µM, the GI50 [3] was 15.8 µM and the TGI [3] was 32.4 µM. It also gave a GI50 [4] of 15.8 µM, a TGI [4] of 33 µM and a GI50 [8] of 29.9 µM. For the same molecule, the TGI [8] was 53.7 µM, the GI50 [10] was 19.7 µM and the TGI [10] was 41.8 µM. It also gave a GI50 [5] of 19.6 µM, a TGI [5] of 40 µM and a GI50 [6] of 18.5 µM. For the same molecule, the TGI [6] was 32.5 µM.

With `CC(C)CCCC(C)C1CCC2C3CC([N+](=O)[O-])=C4CC(O)CCC4(C)C3CCC12C` (stereo not drawn) the TGI [7] was 60.6 µM, the TGI [1] was 42.3 µM and the TGI [2] was 36.6 µM. It also gave a TGI [9] of 39.2 µM, a TGI [4] of 62.9 µM and a TGI [10] of 34.1 µM. The TGI [5] was 59.1 µM.

`ON1CCc2c([nH]c3ccccc23)C1c1ccc(Cl)cc1` (stereo not drawn) was tested, and the TGI [7] was 79.5 µM, the TGI [1] was greater than 100 µM and the TGI [2] was 37.4 µM. For the same molecule, the TGI [9] was 77.6 µM, the TGI [4] was greater than 100 µM and the TGI [8] was greater than 100 µM. The TGI [10] was greater than 100 µM, the TGI [5] was greater than 100 µM and the TGI [6] was 91.7 µM.

Work on `COC1=CC(=O)C(O)=C(CC2(C)C(C)CCC3(C)C2CCCC3(C)C)C1=O` (stereo not drawn) yielded a TGI [7] of 8.53 µM, a TGI [1] of 10.7 µM and a TGI [2] of 23.2 µM. The TGI [9] was 13.4 µM, the TGI [4] was 25.4 µM and the TGI [8] was 19.3 µM. It also gave a TGI [10] of 12.8 µM, a TGI [5] of 30.5 µM and a TGI [6] of 17.2 µM.

`CC(C)(C)c1ccc(OCCOCCOc2ccc(C(C)(C)C)cc2S(N)(=O)=O)c(S(N)(=O)=O)c1` showed a TGI [7] greater than 100 µM, a TGI [1] greater than 100 µM and a TGI [2] greater than 100 µM. For the same molecule, the TGI [9] was greater than 100 µM, the TGI [4] was greater than 100 µM and the TGI [8] was greater than 100 µM. For the same molecule, the TGI [5] was greater than 100 µM and the TGI [6] was greater than 100 µM.

With `CCN1CCN(CC(=O)Nc2nc3ccc(NCc4ccc(Br)cc4)cc3s2)CC1` the GI50 [7] was 1.95 µM, the TGI [7] was 3.81 µM and the GI50 [9] was 1.66 µM. The TGI [9] was 3.19 µM, the GI50 [3] was 2.05 µM and the TGI [3] was 4.9 µM. For the same molecule, the GI50 [8] was 2.6 µM, the TGI [8] was 6.93 µM and the GI50 [10] was 2.42 µM. The TGI [10] was greater than 100 µM, the GI50 [6] was 1.78 µM and the TGI [6] was 3.4 µM.

`CN(C)CCNC(=O)c1cccc2c1nc(-c1cccnc1)c1ccccc12` showed a TGI [7] of 28.8 µM, a TGI [1] of 22.3 µM and a TGI [2] of 12.6 µM. For the same molecule, the TGI [4] was 22.2 µM, the TGI [8] was 36.8 µM and the TGI [5] was 25.3 µM. For the same molecule, the TGI [6] was 10.8 µM.

In the case of `CN(C)CCCC1(c2ccc(F)cc2)OCc2cc(-c3csc4ccccc34)ccc21` (stereo not drawn), the GI50 [7] is reported as 1.77 µM, the TGI [7] is reported as 3.7 µM and the GI50 [1] is reported as 1.57 µM. For the same molecule, the TGI [1] was 3.31 µM, the GI50 [2] was 1.65 µM and the TGI [2] was 3.16 µM. It also gave a GI50 [9] of 1.43 µM, a TGI [9] of 2.94 µM and a GI50 [3] of 1.67 µM. For the same molecule, the TGI [3] was 3.27 µM, the GI50 [4] was 1.64 µM and the TGI [4] was 3.19 µM. The GI50 [8] was 1.6 µM, the TGI [8] was 3.04 µM and the GI50 [5] was 1.63 µM. For the same molecule, the TGI [5] was 3.22 µM, the GI50 [6] was 1.25 µM and the TGI [6] was 2.62 µM.

In the case of `O=C(CC1(O)C(=O)Nc2c(Cl)ccc(Cl)c21)c1ccc(Cl)cc1` (stereo not drawn), the TGI [1] is reported as greater than 100 µM, the TGI [2] is reported as 37.3 µM and the TGI [9] is reported as 71.8 µM. For the same molecule, the TGI [4] was 94 µM, the TGI [8] was greater than 100 µM and the TGI [5] was greater than 100 µM. For the same molecule, the TGI [6] was greater than 100 µM.

With `CC(C)(C)C1CCC(O)(c2ccccc2)CC1` (stereo not drawn) the TGI [7] was 66.8 µM and 32.5 µM, the TGI [1] was greater than 100 µM and the TGI [2] was > 100 µM and 30.3 µM. The TGI [9] was > 100 µM and 63.2 µM, the TGI [8] was greater than 100 µM and the TGI [10] was > 100 µM and 33 µM. For the same molecule, the TGI [5] was > 100 µM and 40.1 µM and the TGI [6] was greater than 100 µM.

`CCC12C=C(C(=O)OC)N3c4ccccc4C4CCN(CCC1)C2C43` (stereo not drawn) showed a TGI [7] greater than 100 µM, a TGI [1] of 99.8 µM and a TGI [2] greater than 100 µM. It also gave a TGI [9] of 70.4 µM, a TGI [4] greater than 100 µM and a TGI [8] greater than 100 µM. It also gave a TGI [5] greater than 100 µM and a TGI [6] greater than 100 µM.

`O=C(NO)c1ccc(CNc2cccc3nc(C4CC4)n(-c4ccccc4)c(=O)c23)cc1` showed a GI50 [7] of 2.39 µM, a TGI [7] of 5.64 µM and a GI50 [1] of 1.89 µM. For the same molecule, the TGI [1] was 4.72 µM, the GI50 [9] was 2.05 µM and the TGI [9] was 7.61 µM. For the same molecule, the GI50 [3] was 3.35 µM, the TGI [3] was 18 µM and the GI50 [8] was 2.61 µM. The TGI [8] was 9.68 µM, the GI50 [10] was 0.877 µM and the TGI [10] was greater than 100 µM. The GI50 [5] was 1.81 µM, the TGI [5] was 6.01 µM and the GI50 [6] was 1.45 µM. For the same molecule, the TGI [6] was 2.96 µM.
